Results: patent US12590062B2, “PD-1/PD-L1 inhibitors” (Gilead Sciences, Inc., priority 2017, dated 2026)

Key:
[1] = biological target: T1, interaction between the recombinant extracellular domain (ECD) of PD-1 and native cell-bound PD-L1 (Homo sapiens, UniProt Q9NZQ7); assay: CHO/PD-L1 cell capture assay; assay type: cell-based; conditions: CHO cells overexpressing PD-L1, pre-incubated 1 hr with compound, captured on biotinylated Fc-PD-1 coated plates, 75 min at room temperature
T1 construct: expressed in transfected cells
T1 sequence (Q9NZQ7 19-290): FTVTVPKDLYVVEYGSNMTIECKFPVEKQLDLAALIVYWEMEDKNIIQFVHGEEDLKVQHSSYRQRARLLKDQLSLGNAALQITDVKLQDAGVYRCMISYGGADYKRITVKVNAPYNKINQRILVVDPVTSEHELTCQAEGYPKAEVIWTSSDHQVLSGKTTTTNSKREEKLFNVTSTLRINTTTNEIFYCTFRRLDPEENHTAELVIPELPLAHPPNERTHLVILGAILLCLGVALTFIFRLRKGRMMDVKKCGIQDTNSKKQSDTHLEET
Procedure: EC50-CHO/PD-L1-Capture Assay:
Compounds were tested in a cell capture assay to determine if they can specifically block the interaction between the recombinant extracellular domain (ECD) of PD-1 and native cell-bound PD-L1. Binding affinity of stable CHO cells overexpressing PD-L1 with its cognate recombinant ligand coated on plates was measured by counting the number of ‘captured’ cells. High-capacity streptavidin- coated plates were incubated with biotylated-Fc-PD-1 for 2 hours in PBS. Unbound ligand was washed out. CHO-PD-L1 cells (resuspended in PBS pH 7.4, 0.5 mM EDTA, and 2% bovine serum albumin) were pre-incubated for 1 hr with compound, dispensed into each PD-1 ECD coated well and then incubated for 75 min at room temperature. To stop the capture assay, a fixative/staining solution (final concentrations are 1.3% glutaraldehyde and 1.67 μM Draq5) was gently added to the cells and incubated for 2 hrs at room temperature. Unbound cells were then washed out and ‘captured’ cells were enumerated using a high-content microscopy system. EC50 values were calculated from the fit of the dose-response curves to a four-parameter equation. Representative data are shown below in Table 2.

[2] = biological target: T2, PD-1/PD-L1 interaction (Homo sapiens, UniProt Q9NZQ7); assay: PD-1/PD-L1 NFAT reporter co-culture assay; assay type: cell-based; conditions: Jurkat PD-1 NFAT-luciferase cells co-cultured with aAPC-PD-L1 CHO cells, 6 hrs at 37° C.; read-out: EC50 NFAT Luciferase
T2 construct: expressed in transfected cells; host or cells: CHO cells (aAPC-PD-L1) co-cultured with Jurkat cells overexpressing PD-1 and an NFAT-luciferase reporter
T2 sequence (Q9NZQ7 19-290): as above
Procedure, shortened: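 Restoration of TCR-driven NFAT luciferase signal: 6 h, 37 °C co-culture of PD-1 Jurkat reporter cells (pre-mixed with compound) on overnight-seeded PD-L1/anti-CD3 CHO monolayer. ONE-Glo luminescence; dose-response fitted to four-parameter equation for EC50.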

[3] = biological target: PD-1/PD-L1 (Homo sapiens, UniProt Q9NZQ7); assay: PD-1/PD-L1 biochemical protein-protein interaction assay (ALPHA); assay type: binding; conditions: 0.3 nM His tagged PD-L1, 2.5 nM biotinylated Fc-PD-1, 60 minutes at 25° C., read-out: IC50 PD-L1-PD-1 Alpha IC50-mono PD-L1-fcP-D1
Chain of PD-1/PD-L1 (Q9NZQ7 19-238 limits assumed): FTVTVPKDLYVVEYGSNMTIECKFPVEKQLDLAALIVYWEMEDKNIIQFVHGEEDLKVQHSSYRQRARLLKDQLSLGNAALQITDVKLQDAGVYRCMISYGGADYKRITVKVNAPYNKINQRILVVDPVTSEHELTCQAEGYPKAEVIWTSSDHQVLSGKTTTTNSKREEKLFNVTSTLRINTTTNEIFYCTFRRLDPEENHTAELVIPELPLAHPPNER
Procedure, shortened: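 Extracellular-domain binding of His-tagged PD-L1 (0.3 nM final) to biotinylated Fc-PD-1 (2.5 nM final) was measured by ALPHA in 25 mM Hepes pH 7.4, 150 mM NaCl, 3.4 mM EDTA, 0.005% Tween 20, 0.01% BSA. After 60 min at 25° C, anti-His acceptor and streptavidin donor beads were added; IC50 from four-parameter fits.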

[4] = biological target: T3, PD-L1 (Homo sapiens, UniProt Q9NZQ7); assay: PD-L1/PD-L1 dimerization biochemical protein-protein interaction assay (ALPHA); assay type: binding; conditions: compound-induced PD-L1 dimerization, head prints '1 nM' (0.5 nM His-tagged PD-L1 and 0.5 nM FLAG-tagged PD-L1), read-out: AC50 PDL1 Dimer Alpha 1 nM
T3 construct: determine if they can specifically dimerize the extracellular domains of PD-L1
T3 sequence (Q9NZQ7 19-238 limits assumed): as above
T3 sequence (Q9NZQ7 19-238 limits assumed): as above
Procedure, shortened: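 ALPHA proximity assay of compound-induced dimerization of 0.5 nM His-tagged and 0.5 nM FLAG-tagged PD-L1 extracellular domains in Hepes pH 7.4 buffer, 2 h at 25 °C. Anti-His acceptor then anti-FLAG donor beads, 60 min each; AC50 from four-parameter fit.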

| Structure (SMILES) | EC50 [1] | EC50 [2] | IC50 [3] | AC50 [4] |
| --- | --- | --- | --- | --- |
| COc1nc(O[C@H]2CCc3c(-c4cccc5c4CC[C@@H]5Oc4nc(OC)c(CNCC(=O)O)cc4Cl)cccc32)ccc1CNCC(=O)O [Example 1, ((6-(((1S,1′S)-1′-((5-(((carboxymethyl)amino)methyl)-3-chloro-6-methoxypyridin-2-yl)oxy)-2,2′,3,3′-tetrahydro-1H,1′H-[4,4′-biinden]-1-yl)oxy)-2-methoxypyridin-3-yl)methyl)glycine] | 382 nM | 516 nM | – | – |
| COc1nc(O[C@H]2CCc3c(-c4cccc5c4CC[C@@H]5Oc4nc(OC)c(CNCC(=O)O)cc4Cl)cccc32)c(Cl)cc1CNCC(=O)O [Example 2, 2,2′-((((((1S,1′S)-2,2′,3,3′-tetrahydro-1H,1′H-[4,4′-biindene]-1,1′-diyl)bis(oxy))bis(5-chloro-2-methoxypyridine-6,3-diyl))bis(methylene))bis(azanediyl))diacetic acid] | 1270 nM | 456 nM | – | – |
| COc1nc(O[C@H]2CCc3c(-c4cccc5c4CC[C@@H]5Oc4nc(OC)c(CNC[C@@H](O)CC(=O)O)cc4Br)cccc32)c(Br)cc1CNCCO [Example 8, (S)-4-(((5-bromo-6-(((1S,1′S)-1′-((3-bromo-5-(((2-hydroxyethyl)amino)methyl)-6-methoxypyridin-2-yl)oxy)-2,2′,3,3′-tetrahydro-1H,1′H-[4,4′-biinden]-1-yl)oxy)-2-methoxypyridin-3-yl)methyl)amino)-3-hydroxybutanoic acid] | 79.7 nM | 290 nM | – | – |
| COc1nc(O[C@H]2CCc3c(-c4cccc5c4CC[C@@H]5Oc4nc(OC)c(CNCCO)cc4Br)cccc32)c(Br)cc1CNCCO [Example 10, 2,2′-((((((1S,1′S)-2,2′,3,3′-tetrahydro-1H,1′H-[4,4′-biindene]-1,1′-diyl)bis(oxy))bis(5-bromo-2-methoxypyridine-6,3-diyl))bis(methylene))bis(azanediyl))bis(ethan-1-ol)] | 185 nM | 502 nM | – | – |
| Cc1c(COc2cc(OCc3cncc(C#N)c3)c(CNC[C@@H](O)CC(=O)O)cc2Cl)cccc1-c1cccc(-c2ccc3cc(CNC[C@@H](O)CC(=O)O)ccc3c2)c1C [Example 31, (S)-4-(((6-(3′-((4-((((S)-3-carboxy-2-hydroxypropyl)amino)methyl)-2-chloro-5-((5-cyanopyridin-3-yl)methoxy)phenoxy)methyl)-2,2′-dimethyl-[1,1′-biphenyl]-3-yl)naphthalen-2-yl)methyl)amino)-3-hydroxybutanoic acid] | 30.1 nM | 687 nM | – | – |
| COc1nc(OCc2cccc(-c3cccc(COc4nc(OC)c(CN[C@@](C)(CO)C(=O)O)cc4Br)c3C)c2C)c(Br)cc1CN[C@@](C)(CO)C(=O)O [Example 45, (2S,2′S)-2,2′-((((((2,2′-dimethyl-[1,1′-biphenyl]-3,3′-diyl)bis(methylene))bis(oxy))bis(5-bromo-2-methoxypyridine-6,3-diyl))bis(methylene))bis(azanediyl))bis(3-hydroxy-2-methylpropanoic acid)] | 166 nM | 75 nM | – | – |
| COc1nc(OCc2cccc(-c3cccc(COc4nc(OC)c(CN5CC[C@@H](O)C[C@H]5C(=O)O)cc4Cl)c3C)c2C)c(Cl)cc1CN1CC[C@@H](O)C[C@H]1C(=O)O [Example 47, (2S,2′S,4R,4′R)-1,1′-(((((2,2′-dimethyl-[1,1′-biphenyl]-3,3′-diyl)bis(methylene))bis(oxy))bis(5-chloro-2-methoxypyridine-6,3-diyl))bis(methylene))bis(4-hydroxypiperidine-2-carboxylic acid)] | 226 nM | 503 nM | – | – |
| COc1nc(O[C@H]2CCc3c(-c4cccc(-c5ccc(C6=NCCN6)c(OC)n5)c4Cl)cccc32)c(Br)cc1CNC(C)(C)C(=O)O [Example 786] | – | 86 nM | 0.064 nM | 12.2 nM |
| COc1nc(O[C@H]2CCc3c(-c4cccc(-c5ccc(C6=NCCN6)c(OC)n5)c4Cl)cccc32)c(Br)cc1CNC[C@@H](O)CC(=O)O [Example 787] | – | 58 nM | 0.066 nM | 35.4 nM |
| COc1nc(O[C@H]2CCc3c(-c4cccc(-c5ccc(C6=NCCN6)c(OC)n5)c4Cl)cccc32)c(Br)cc1CN[C@](C)(CO)C(=O)O [Example 788] | – | 39 nM | 0.064 nM | 11.8 nM |
| COc1nc(O[C@H]2CCc3c(-c4cccc(-c5ccc(C6=NCCN6)c(OC)n5)c4Cl)cccc32)c(Br)cc1CN[C@@](C)(CO)C(=O)O [Example 789] | – | 58 nM | 0.064 nM | 17.9 nM |
| COc1nc(O[C@H]2CCc3c(-c4cccc(-c5ccc(CNC[C@@H]6CCC(=O)N6)c(F)c5)c4Cl)cccc32)c(Br)cc1CNC[C@@H]1CCC(=O)N1 [Example 790] | – | 84 nM | 0.865 nM | 75.7 nM |
| COc1nc(O[C@H]2CCc3c(-c4cccc(-c5ccc(CNC[C@@H]6CCC(=O)N6)c(Cl)c5)c4Cl)cccc32)c(Br)cc1CNC[C@@H]1CCC(=O)N1 [Example 791] | – | 175 nM | 2.84 nM | 206 nM |
| COc1cc(-c2cccc(-c3cccc4c3CC[C@@H]4Oc3nc(OC)c(CNC[C@@H]4CCC(=O)N4)cc3Br)c2Cl)ccc1CNC[C@@H]1CCC(=O)N1 [Example 792] | – | 40 nM | 0.534 nM | 22.7 nM |
| COc1nc(O[C@H]2CCc3c(-c4cccc(-c5ccc6c(c5)C[C@@H](N)C6)c4Cl)cccc32)ccc1CNC[C@@H]1CCC(=O)N1 [Example 793] | – | 1810 nM | 1.75 nM | 187 nM |
| COc1nc(O[C@H]2CCc3c(-c4cccc(-c5ccc6c(c5)C[C@@H](N)C6)c4Cl)cccc32)c(Br)cc1CNC[C@@H]1CCC(=O)N1 [Example 794] | – | 794 nM | 1.73 nM | 94.2 nM |

Results, then the molecule that gave them:

| EC50 [1] | EC50 [2] | IC50 [3] | AC50 [4] | Structure (SMILES) |
| --- | --- | --- | --- | --- |
| – | 41 nM | 0.064 nM | 9.65 nM | C[C@@](CO)(NCc1cc(Cl)c(O[C@H]2CCc3c(-c4cccc(-c5ccc6c(c5)CC(N)C6)c4Cl)cccc32)nc1OCc1cncc(C#N)c1)C(=O)O (some centres unmarked) [Example 795] |
| – | 151 nM | 0.762 nM | 228 nM | COc1cc(O[C@H]2CCc3c(-c4cccc(-c5ccc(CN6CC7(CCC(=O)N7)C6)c(OC)n5)c4Cl)cccc32)c(Cl)cc1CNC[C@@H]1CCC(=O)N1 [Example 796] |
| – | 30 nM | 0.064 nM | 41.4 nM | COc1nc(-c2cccc(-c3cccc4c3CC[C@@H]4Oc3nc(OCc4cc(C#N)cc(C#N)c4)c(CNC[C@@H](O)CC(=O)O)cc3Cl)c2Cl)ccc1CNC[C@@H]1CCC(=O)N1 [Example 797] |
| – | 167 nM | 0.341 nM | 150 nM | COc1cc(-c2cccc(-c3cccc4c3CC[C@@H]4Oc3nc(OC)c(CNC[C@@H]4CCC(=O)N4)cc3Cl)c2Cl)nc(Cl)c1CNC[C@@H]1CCC(=O)N1 [Example 799] |
| – | 246 nM | 1.29 nM | 537 nM | COc1nc(-c2cc(F)cc(-c3cccc4c3CC[C@@H]4Oc3ccc(CNC[C@@H]4CCC(=O)N4)c(OCc4cncc(C#N)c4)n3)c2Cl)ccc1CNC[C@@H]1CCC(=O)N1 [Example 800] |
| – | ≥ 50000 nM | 9.69 nM | ≥ 10000 nM | N#Cc1cncc(COc2cc(O[C@H]3CCc4c(-c5cccc(-c6ccc7sc(CNC[C@@H]8CCC(=O)N8)nc7c6)c5Cl)cccc43)c(Cl)cc2CNC[C@@H]2CCC(=O)N2)c1 [Example 801] |
| – | 177 nM | 0.084 nM | 55.5 nM | N#Cc1cncc(COc2cc(O[C@H]3CCc4c(-c5cccc(-c6nc7ccc(CNC[C@@H]8CCC(=O)N8)cn7n6)c5Cl)cccc43)c(Cl)cc2CNC[C@@H]2CCC(=O)N2)c1 [Example 802] |
| – | 49 nM | 0.064 nM | 11.7 nM | N#Cc1cncc(COc2nc(O[C@H]3CCc4c(-c5cccc(-c6nc7ccc(CNC[C@@H](O)CC(=O)O)cn7n6)c5Cl)cccc43)c(Cl)cc2CNC[C@@H](O)CC(=O)O)c1 [Example 803] |
